Measurements: patent US8927730B2, “Intramolecular hydrogen-bonded nitric oxide synthase inhibitors” (Northwestern University, priority 2010, dated 2015)

Tests used:
rat nNOS = rat nNOS (Rattus norvegicus (Rat), UniProt P29476); experiment: In vitro purified enzyme assay (hemoglobin capture), nNOS; assay type: biochemical; conditions: for IC50: purified enzyme assay; for Ki: calculated from directly measured IC50 (Cheng-Prusoff), rat nNOS
Method: (§1) The three NOS isoforms, rat nNOS, murine iNOS and bovine eNOS were recombinant enzymes overexpressed in E. coli and purified as reported in the literature. (See, e.g., example 51 of the aforementioned incorporated '790 patent and the references cited therein.) The hemoglobin capture was used to measure nitric oxide production. (See, Hevel, J. M. and Marietta, M. A. Nitric Oxide Synthase Assays. Methods Enzymol. 1994, 133, 250-258.) Briefly, the assay was run at 37° C. in 100 mM HEPES buffer (10% glycerol; pH 7.4) in the presence of 10 μM L-arginine. The following NOS cofactors were also included in the assay: 100 μM NADPH, 10 μM tetrahydrobiopterin, 1 mM CaCl2, 11.6 μg/mL calmodulin and 3.0 μM oxyhemoglobin. For iNOS, calmodulin and CaCl2 were omitted. The assay was run in a high throughput manner, using the Synergry 4 by BioTek, at the Northwestern University HighThroughput Analysis Facility. The assay was run in triplicate; 48 100 uL reactions were ran at once in a 96 well plate. The addition of hemoglobin and NOS were automated with a maximum of a 30 second delay before the reactions could be recorded at 401 nm. The absorbance increase at 401 nm is due to the formation of NO via the conversion of oxyhemoglobin to methemoglobin.
(§2) The IC50 values were obtained using non-linear regression in GraphPad Prism5 software.

[1] = target: HEK293t cells stably transfected with rat nNOS (Rattus norvegicus (Rat), UniProt P29476); experiment: nNOS cell-based assay (nitrite production, Griess reagent); conditions: for Relationship (fold higher in cells): cell-based IC50 versus in vitro IC50; for IC50: inhibition of nitric oxide production in HEK293t cells stably expressing nNOS
Method: HEK293t cells stably transfected with rat nNOS were cultured as previously described, and the nNOS inhibition assay was performed as previously reported (Fang, J.; Silverman, R. B. A cellular model for screening neuronal nitric oxide synthase inhibitors. Analytical Biochemistry 2009, 390, 74-78), with the following modifications: assays were performed in 96-well plates with a total volume of 100 μL, and 10 μM A23187 (Sigma Aldrich, St Louis, Mo., USA) in 50% DMSO was used in place of 5 μM. Nine concentrations of each inhibitor were tested, in at least triplicate wells. All inhibitors were assayed within the same experiment to assure consistencies in cell concentration and passage number. The entire assay was repeated at least twice for each inhibitor, and the IC50 values averaged. After 6 hours of activation (in the presence or absence of inhibitor, which was added 30 minutes before activation) 50 μL aliquots of the media were removed and nitrite production was quantified using Griess reagent. (See, Hevel, J. M.; White, K. A.; Marietta, M. Purification of the inducible murine macrophage nitric oxide synthase. Identification as a flavoprotein. J. Biol. Chem. 1991, 266, 22789-22791.)

[2] = cited from earlier work
[3] = animal test results; cited from earlier work
murine iNOS = murine iNOS (Mus musculus (Mouse), UniProt P29477); experiment: In vitro purified enzyme assay (hemoglobin capture), iNOS; assay type: biochemical; conditions: for Ki: calculated from directly measured IC50 (Cheng-Prusoff), murine iNOS; for selectivity n/i: ratio of Ki (iNOS) to Ki (nNOS)
Method: as §1, §2

bovine eNOS = bovine eNOS (Bos taurus (Bovine), UniProt P29473); experiment: In vitro purified enzyme assay (hemoglobin capture), eNOS; assay type: biochemical; conditions: for Ki: calculated from directly measured IC50 (Cheng-Prusoff), bovine eNOS; for selectivity n/e: ratio of Ki (eNOS) to Ki (nNOS)
Method: as §1, §2

Row | SMILES | IC50 (rat nNOS) | Relationship (fold higher in cells) [1] | IC50 [1] | Ki (rat nNOS) | Ki (murine iNOS) | selectivity n/i (murine iNOS) | Ki (bovine eNOS) | selectivity n/e (bovine eNOS) | pKa [2] | BBB penetration [3]
1 | CNc1cc(N)nc(NC)c1.Cl [Aminopyridine, 2-amino-4,6-dimethylaminopyridine hydrochloride, reference compound] | 0.05 µM | 500x |  |  |  |  |  |  | ~7 | 
2 | C=CCO[C@@H]1CN(C(=O)OC(C)(C)C)C[C@@H]1Cc1cc(C)cc(N(C(=O)OC(C)(C)C)C(=O)OC(C)(C)C)n1 [Compound 1, reference compound] | 0.45 µM | 722 x | 325 µM |  |  |  |  |  |  | do not penetrate the BBB
3 | Cc1cc(C[C@H]2CN(C(=O)OC(C)(C)C)C[C@H]2OCC=O)nc(N(C(=O)OC(C)(C)C)C(=O)OC(C)(C)C)c1 [Compound 2, reference compound] | 1 µM | 125 x | 125 µM |  |  |  |  |  |  | do not penetrate the BBB

Further lines, with some results ahead:

Row | IC50 (rat nNOS) | Relationship (fold higher in cells) [1] | IC50 [1] | Ki (rat nNOS) | Ki (murine iNOS) | selectivity n/i (murine iNOS) | Ki (bovine eNOS) | selectivity n/e (bovine eNOS) | SMILES | pKa [2] | BBB penetration [3]
4 | 3.6 µM | 33 x | 120 µM | 410 nM | 44 µM | 105 | 40 µM | 98 | Cc1cc(N)nc(C[C@H]2CNC[C@H]2OCCNCc2ccccc2F)c1 [Compound 3a, 6-(((3S,4S)-4-(2-(2-Fluorobenzylamino)ethoxy)pyrrolidin-3-yl)methyl)-4-methylpyridin-2-amine] |  | 
5 | 7.1 µM | 27 x | 190 µM | 820 nM | 114 µM | 139 | 77 µM | 93 | COc1ccccc1CNCCO[C@@H]1CNC[C@@H]1Cc1cc(C)cc(N)n1 [Compound 3b, 6-(((3S,4S)-4-(2-(2-Methoxybenzylamino)ethoxy)pyrrolidin-3-yl)methyl)-4-methylpyridin-2-amine] |  | 
6 | 3.5 µM | 150 x | 520 µM | 390 nM | 57 µM | 143 | 37 µM | 93 | Cc1cc(N)nc(C[C@H]2CNC[C@H]2OCCNCc2ccccc2O)c1 [Compound 3c, 2-((2-((3S,4S)-4-((6-Amino-4-methylpyridin-2-yl)methyl)pyrrolidin-3-yloxy)ethylamino)methyl)phenol] |  | 
7 | 3.4 µM | 123 x | 420 µM | 400 nM | 36 µM | 92 | 66 µM | 169 | Cc1cc(N)nc(C[C@H]2CNC[C@H]2OCCNCc2ccco2)c1 [Compound 3d, 6-(((3S,4S)-4-(2-(Furan-2-ylmethylamino)ethoxy)pyrrolidin-3-yl)methyl)-4-methylpyridin-2-amine] |  | 
